Data: patent publication US20260306460A1, “COMPOSITION FOR REMOVING AND INHIBITING SENESCENT CELLS, AND USES THEREOF” (LIFECEUTIX CO., LTD., priority 2023, published 2026)

How the values were obtained:
[1] = MST; described in WO2021183908A1; cited from earlier work
[2] = system: HMGN1 secreted from senescent human cells; experiment: HMGN1 secretion (ELISA) from doxorubicin-induced senescent human cells, Example 11; type: cell-based; settings: senescent untreated = 100%; 30 μM; 90 μM for LX-305, 1302, 1603, 2005, 2702, 2901, 3106; 270 μM for LX-1103, 2007
senescent human cells = experiment: Viability of doxorubicin-induced senescent human cells (CellTiter-Glo), Example 11; type: cell-based; settings: 0 μM = 100
Description: Cells in which senescence was induced by treatment with doxorubicin were treated with the test compound at designated concentrations and measured using the CellTiter-Glo Luminescent Cell Viability Assay (Promega).
After 3 days, cell viability was measured using CellTiter-Glo Luminescent Cell Viability Assay (Promega) or light microscopy.

[3] = system: HMGN1 secreted from senescent A549 cells; experiment: HMGN1 secretion (ELISA) from senescent A549 cancer cells, Example 12; type: cell-based, human; settings: senescent untreated = 100%; 30 μM; 90 μM for LX-305, 905, 1302, 1601, 1603, 2003, 2702, 2901, 3106; 270 μM for LX-1103, 2005, 2007;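 note: A549 cells made senescent by doxorubicin exposure, with DMSO-treated cells serving as the non-senescent control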
Description: (§1) Cells were treated with doxorubicin or control (DMSO) and cultured.

senescent A549 cells [4] = experiment: Viability of senescent A549 cancer cells (CellTiter-Glo), Example 12; type: cell-based, human; settings: 0 μM = 100
Description: as §1
Cancer cells in which aging was induced by treatment with doxorubicin were treated with the test compound at designated concentrations and measured using the CellTiter-Glo Luminescent Cell Viability Assay (Promega).

senescent foreskin cells = experiment: Survival of senescent human cells treated with supernatant (secreted fluid) from death-induced cells, Example 13; type: cell-based; settings: Table 8; supernatant from dying senescent cells treated at 30, 90 or 270 μM (as Example 11); senescent treated cells
naturally aged mice = experiment: Anti-aging evaluation in naturally aged mice, Example 31, Table 55; type: in vivo, mouse; settings: for Femur Ctsk mRNA / Kidney Agtr1a mRNA / Liver IL6 mRNA / Liver MMP3 mRNA / Liver p16 mRNA / Open Field Test Time in Center: untreated = 100%; for Heart Sur2a mRNA / Joint Col2a1 mRNA / Skin Col1a1 mRNA / Skin SDF1 mRNA: untreated = 1.0; for Muscle Mass: untreated 0.64 g; for Fat Mass: untreated 0.82 g; for Cataract incidence: untreated 83%;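 for all read-outs here: Vehicle-dosed control mice received solution alone at matching volume, values compare test-compound-treated aged mice against that control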
Description: After the end of drug administration, the method described in each example below was performed. […] The mRNA amounts of p16, MMP3, and IL6 after natural aging was induced were calculated as 100% and compared with the mRNA amounts of p16, MMP3, and IL6 after treatment with the test compound. In addition, an open field test for the analysis of aging-related frailty, agtr1a mRNA analysis for kidney damage and disease evaluation, col1a1 and SDF1 mRNA analysis for skin aging evaluation such as wrinkles/loss of elasticity/hyperpigmentation, col2a1 mRNA analysis for evaluating joint aging such as osteoarthritis, sur2a mRNA analysis for evaluating cardiac aging such as decreased cardiac load resistance, ctsk mRNA analysis for evaluating bone diseases due to aging such as osteoporosis, muscle tissue weight for analyzing sarcopenia, fat tissue weight for analyzing lipoatrophy, and cataract incidence analysis were performed in mice. For cataract incidence analysis, the drug was administered twice a week under the conditions specified above, and biweekly examinations were conducted until death.

[5] = system: bleomycin-induced pulmonary fibrosis mice; experiment: Bleomycin-induced pulmonary fibrosis mice, Example 31, Table 56; type: in vivo, mouse; settings: untreated = 100%
Outline: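 Mice with bleomycin-induced pulmonary fibrosis, untreated or given test compound, with vehicle-only controls. Lung tissue collected for RNA extraction and qRT-PCR analysis.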

[6] = system: carbon tetrachloride-induced liver fibrosis mice; experiment: Carbon tetrachloride-induced liver fibrosis mice, Example 31, Table 57; type: in vivo, mouse; settings: CCl4-induced liver fibrosis mice, untreated = 100%
Outline: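 Mice with induced hepatic fibrosis received either the test compound or, as controls, an equal volume of vehicle solution alone. Once dosing ended, liver tissue was harvested and total RNA was isolated. cDNA was synthesized from this RNA, and quantitative RT-PCR was run on it to measure hepatic mRNA levels of the fibrosis- and senescence-related genes.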

[7] = system: HMGN1 secreted from senescent cells; experiment: HMGN1 secretion (ELISA) from doxorubicin-induced senescent cells, Example 17; type: cell-based, human; settings: senescent untreated = 100%; 30 μM; 90 μM for LX-5211, 5433, 6530, 9105, 9118, 9321, 9602; 2.4 mM for LX-9336
[8] = system: HMGN1 secreted from senescent A549 cells; experiment: HMGN1 secretion (ELISA) from senescent A549 cells, Example 18, Table 14; type: cell-based, human; settings: doxorubicin-senescent A549, without test compound (DMSO) = 100%; 30 μM (LX-5211, LX-5433, LX-6530, LX-6800, LX-9105, LX-9118, LX-9131, LX-9136, LX-9302, LX-9321, LX-9565, LX-9602 at 90 μM; LX-9336 at 2.4 mM)
Description: On the other hand, in cancer cells treated with doxorubicin, where senescence was induced, the amount of HMGN1 measured under conditions where cells were not treated with the test compound was calculated as 100%, and the amount of HMGN1 was measured under conditions where the senescent cancer cells were treated with the test compound.

[9] = system: naturally aged C57BL6J mice; experiment: Geriatric depression and anxiety in aged mice, Example 21-8; type: in vivo, mouse; settings: aged mice
Text: The amount of senescent-associated secretory factor (SASP) in serum and tissues collected from mice of Examples 21-5 and 21-6 was reduced by treatment with LX-5701, LX-2101, or LX-2102. It was confirmed that removing senescent cells, which increase with aging in mice, and effectively reducing the amount of senescent-associated secretory factor (SASP) can improve symptoms of geriatric depression and anxiety.

[10] = system: obesity-induced aged C57BL6J mice; experiment: Anxiety, depression, lethargy (open field test) in obesity-aged mice, Example 23-4, Table 44; type: in vivo, mouse; settings: obesity-aged mice
Description: 15-week-old male C57BL6J mice (The Jackson Laboratory) were induced to obesity by a high-fat diet using the same method as in Example 9-1 WO2023-085787 A1. After acclimation to the experimental environment for one week, the mice were randomly assigned to experimental and control groups. […] LX-3002 was mixed in distilled water with 4% DMSO, 30% PEG300, and 5% Tween80 and administered orally at a concentration of 10 mg/kg daily for 21 days. LX-5701 was mixed in PBS and administered orally at a concentration of 360 mg/kg daily for 21 days. LX-6807 was mixed in saline and administered intraperitoneally at a concentration of 1 mg/kg daily for 21 days. The control group received only the solution in the same volume. After the end of drug administration, the methods described in each example below were performed.
It was determined that anxiety and depression caused by obesity are not causally related to increased body weight, but rather are caused by the accumulation of senescent cells. Accordingly, an activity assessment (open field test) was performed using the same method as in Example 7-7 of WO2023-085787 A1 to analyze lethargy caused by anxiety and depression caused by obesity in mice. The table below quantitatively represents activity, a criterion for assessing lethargy due to anxiety and depression, under conditions in which aging was induced by obesity and the test compound was not administered or was administered. The activity assessment after obesity-induced aging was calculated as 100% and compared with the activity assessment after test compound treatment.

senescent cells = experiment: Viability of senescent cells (CellTiter-Glo), Example 17, Table 13; settings: doxorubicin-induced senescent cells, 0 μM = 100
Description: Cells induced to undergo senescence by doxorubicin treatment were treated with test compound at designated concentrations and measured using the CellTiter-Glo Luminescent Cell Viability Assay (Promega).

senescent A549 cells [11] = experiment: Viability of senescent A549 cells (CellTiter-Glo), Example 18, Table 15; settings: doxorubicin-induced senescent A549 cells, 0 μM = 100%
Description: Senescence-induced cancer cells treated with doxorubicin were treated with the test compound at designated concentrations, and cell viability was measured using the CellTiter-Glo Luminescent Cell Viability Assay (Promega).

SMILES | Kd [1] [nM] | HMGN1 [2] [%] | Survival (senescent human cells; 1.1 μM) [%] | Survival (senescent human cells; 10 μM) [%] | Survival (senescent human cells; […]) [%] | HMGN1 [3] [%] | Survival (senescent A549 cells [4]; 1.1 μM) [%] | Survival (senescent A549 cells [4]; 10 μM) [%] | Survival (senescent A549 cells [4]; 30 μM) [%] | Survival (senescent A549 cells [4]; […]) [%] | Survival (senescent foreskin cells) | Femur Ctsk mRNA (naturally aged mice) [%] | Heart Sur2a mRNA (naturally aged mice) [fold] | Joint Col2a1 mRNA (naturally aged mice) [fold] | Kidney Agtr1a mRNA (naturally aged mice) [%] | Liver IL6 mRNA (naturally aged mice) [%] | Liver MMP3 mRNA (naturally aged mice) [%] | Liver p16 mRNA (naturally aged mice) [%] | Open Field Test Time in Center (naturally aged mice) [%] | Skin Col1a1 mRNA (naturally aged mice) [Fold] | other results
CC(C(=O)OC(C)(C)C)N1C(=O)c2ccccc2C1=O (stereo not shown) [QW-023] | 1780 | – | – | – | – | – | – | – | – | – | – | – | – | – | – | – | – | – | – | – | –
CC(C)OC(=O)CCCN1C(=O)c2ccccc2C1=O [QW-017] | 399 | – | – | – | – | – | – | – | – | – | – | – | – | – | – | – | – | – | – | – | –
CCOC(=O)[C@@H](N)CCC(=O)N[C@@H](CSCc1ccccc1)C(=O)N[C@@H](C(=O)OCC)c1ccccc1 [LX-2602, Ezatiostat] | – | 208 | 97.3 | 76.9 | 92.5 | 283 | 102.7 | 96 | 32.5 | 107.4 | 69.5 | 59 | 1.7 | 2.2 | 61 | 80 | 64 | 71 | 158 | 2.5 | Survival (senescent human cells; 30 μM): 47.6%; Skin SDF1 mRNA (naturally aged mice): 2.0 fold; Muscle Mass (naturally aged mice): 0.69 g; Fat Mass (naturally aged mice): 0.84 g; Cataract incidence (naturally aged mice): 81%; Lung p16 mRNA [5]: 68 (±3.5) %; Col1a1 mRNA [5]: 58 (±2.9) %; Liver p16 mRNA [6]: 77 (±3.9) %; Col1a1 mRNA [6]: 82 (±3.7) %
CN(CCOc1ccc(CC2SC(=O)NC2=O)cc1)c1ccccn1 (stereo not shown) [LX-9423, Rosiglitazone] | – | – | – | – | – | – | – | – | – | – | – | – | – | – | – | – | – | – | – | – | HMGN1 [7]: 227%; HMGN1 [8]: 239%; amount of SASP, p16, SA-β-gal, lipofuscin [9]: reduced; symptoms of geriatric depression and anxiety [9]: improved; geriatric depression [10]: similarly improving geriatric depression; Survival (%) (senescent cells; 1.1 μM): 79.5%; Survival (%) (senescent cells; 10 μM): 25.4%; Survival (%) (senescent cells; 30 μM): 8.7%; Survival (%) (senescent cells; […]): 71.8%; Survival (%) (senescent A549 cells [11]; 1.1 μM): 82.1%; Survival (%) (senescent A549 cells [11]; 10 μM): 39.8%; Survival (%) (senescent A549 cells [11]; 30 μM): 3.0%; Survival (%) (senescent A549 cells [11]; […]): 78.3%
CCC(C)C(C(=O)OC(C)(C)C)N1C(=O)c2ccccc2C1=O (stereo not shown) [QW-050] | 2430 | – | – | – | – | – | – | – | – | – | – | – | – | – | – | – | – | – | – | – | –
CC(C)(C)OC(=O)C(C)(C)N1C(=O)c2ccccc2C1=O [QW-020] | 2140 | – | – | – | – | – | – | – | – | – | – | – | – | – | – | – | – | – | – | – | –
Cc1nc(-c2nc(-c3ccc(OC(F)(F)F)cc3)no2)nn1Cc1cccc(N2CCC(S(C)(=O)=O)CC2)c1 [LX-3200] | – | 234 | 92.2 | 14.3 | 78.6 | 305 | 94.9 | 61.6 | 1.6 | 91.7 | 54.9 | 68 | 1.4 | 1.3 | 62 | 67 | 71 | 77 | 188 | 1.4 | Skin SDF1 mRNA (naturally aged mice): 1.6 fold; Muscle Mass (naturally aged mice): 0.69 g; Fat Mass (naturally aged mice): 1.03 g; Cataract incidence (naturally aged mice): 72%; Lung p16 mRNA [5]: 76 (±5.7) %; Col1a1 mRNA [5]: 63 (±6.9) %; Liver p16 mRNA [6]: 75 (±9.8) %; Col1a1 mRNA [6]: 80 (±9.6) %
CC(C)(C)OC(=O)C(N1C(=O)c2ccccc2C1=O)C(C)(C)C (stereo not shown) [QW-034] | 979 | – | – | – | – | – | – | – | – | – | – | – | – | – | – | – | – | – | – | – | –
CN(Cc1cnc2nc(N)nc(N)c2n1)c1ccc(C(=O)N[C@@H](CCC(=O)O)C(=O)O)cc1 [LX-2901, Methotrexate] | – | 167 | 103.3 | 104.8 | 97.8 | 189 | 89 | 90.4 | 92.3 | 87.8 | 97.5 | 51 | 1.7 | 4.0 | 67 | 55 | 72 | 64 | 167 | 1.7 | Survival (senescent human cells; 30 μM): 93.6%; Survival (senescent human cells; 90 μM): 49.9%; Survival (senescent A549 cells [4]; 90 μM): 37.2%; Skin SDF1 mRNA (naturally aged mice): 1.8 fold; Muscle Mass (naturally aged mice): 0.69 g; Fat Mass (naturally aged mice): 0.90 g; Cataract incidence (naturally aged mice): 59%; Lung p16 mRNA [5]: 72 (±5.7) %; Col1a1 mRNA [5]: 61 (±4.3) %; Liver p16 mRNA [6]: 59 (±1.3) %; Col1a1 mRNA [6]: 73 (±3.6) %
C[N+](C)(C)CCO.C[N+](C)(C)CCO.[SH-].[SH-].[S]=[Mo]=[S] [LX-2601] | – | 263 | 95.2 | 58.6 | 81.8 | 193 | 98.6 | 59.7 | 50.7 | 86 | 67.3 | 60 | 2.7 | 2.3 | 73 | 75 | 77 | 73 | 166 | 2.3 | Survival (senescent human cells; 30 μM): 21.8%; Skin SDF1 mRNA (naturally aged mice): 1.9 fold; Muscle Mass (naturally aged mice): 0.71 g; Fat Mass (naturally aged mice): 0.88 g; Cataract incidence (naturally aged mice): 80%; Lung p16 mRNA [5]: 81 (±5.2) %; Col1a1 mRNA [5]: 67 (±3.0) %; Liver p16 mRNA [6]: 75 (±3.2) %; Col1a1 mRNA [6]: 63 (±2.6) %
CC(C)(C)OC(=O)CCN1C(=O)c2ccccc2C1=O [QW-011] | 926 | – | – | – | – | – | – | – | – | – | – | – | – | – | – | – | – | – | – | – | –
CC(C)(C)OC(=O)CCCCCN1C(=O)c2ccccc2C1=O [QW-029] | 2100 | – | – | – | – | – | – | – | – | – | – | – | – | – | – | – | – | – | – | – | –
